In article PMC8269135, “Diethylstilbestrol, a Novel ANO1 Inhibitor, Exerts an Anticancer Effect on Non-Small Cell Lung Cancer via Inhibition of ANO1” (International Journal of Molecular Sciences, 2021):

How the values were obtained:
[1] = biological target: T1, cystic fibrosis transmembrane conductance regulator (CFTR) (Homo sapiens, UniProt P13569); assay: YFP fluorescence and Ussing chamber short-circuit current in FRT-hCFTR cells, […]; type: cell-based
T1 construct: human CFTR expressed in FRT cells
T1 sequence (P13569 whole entry): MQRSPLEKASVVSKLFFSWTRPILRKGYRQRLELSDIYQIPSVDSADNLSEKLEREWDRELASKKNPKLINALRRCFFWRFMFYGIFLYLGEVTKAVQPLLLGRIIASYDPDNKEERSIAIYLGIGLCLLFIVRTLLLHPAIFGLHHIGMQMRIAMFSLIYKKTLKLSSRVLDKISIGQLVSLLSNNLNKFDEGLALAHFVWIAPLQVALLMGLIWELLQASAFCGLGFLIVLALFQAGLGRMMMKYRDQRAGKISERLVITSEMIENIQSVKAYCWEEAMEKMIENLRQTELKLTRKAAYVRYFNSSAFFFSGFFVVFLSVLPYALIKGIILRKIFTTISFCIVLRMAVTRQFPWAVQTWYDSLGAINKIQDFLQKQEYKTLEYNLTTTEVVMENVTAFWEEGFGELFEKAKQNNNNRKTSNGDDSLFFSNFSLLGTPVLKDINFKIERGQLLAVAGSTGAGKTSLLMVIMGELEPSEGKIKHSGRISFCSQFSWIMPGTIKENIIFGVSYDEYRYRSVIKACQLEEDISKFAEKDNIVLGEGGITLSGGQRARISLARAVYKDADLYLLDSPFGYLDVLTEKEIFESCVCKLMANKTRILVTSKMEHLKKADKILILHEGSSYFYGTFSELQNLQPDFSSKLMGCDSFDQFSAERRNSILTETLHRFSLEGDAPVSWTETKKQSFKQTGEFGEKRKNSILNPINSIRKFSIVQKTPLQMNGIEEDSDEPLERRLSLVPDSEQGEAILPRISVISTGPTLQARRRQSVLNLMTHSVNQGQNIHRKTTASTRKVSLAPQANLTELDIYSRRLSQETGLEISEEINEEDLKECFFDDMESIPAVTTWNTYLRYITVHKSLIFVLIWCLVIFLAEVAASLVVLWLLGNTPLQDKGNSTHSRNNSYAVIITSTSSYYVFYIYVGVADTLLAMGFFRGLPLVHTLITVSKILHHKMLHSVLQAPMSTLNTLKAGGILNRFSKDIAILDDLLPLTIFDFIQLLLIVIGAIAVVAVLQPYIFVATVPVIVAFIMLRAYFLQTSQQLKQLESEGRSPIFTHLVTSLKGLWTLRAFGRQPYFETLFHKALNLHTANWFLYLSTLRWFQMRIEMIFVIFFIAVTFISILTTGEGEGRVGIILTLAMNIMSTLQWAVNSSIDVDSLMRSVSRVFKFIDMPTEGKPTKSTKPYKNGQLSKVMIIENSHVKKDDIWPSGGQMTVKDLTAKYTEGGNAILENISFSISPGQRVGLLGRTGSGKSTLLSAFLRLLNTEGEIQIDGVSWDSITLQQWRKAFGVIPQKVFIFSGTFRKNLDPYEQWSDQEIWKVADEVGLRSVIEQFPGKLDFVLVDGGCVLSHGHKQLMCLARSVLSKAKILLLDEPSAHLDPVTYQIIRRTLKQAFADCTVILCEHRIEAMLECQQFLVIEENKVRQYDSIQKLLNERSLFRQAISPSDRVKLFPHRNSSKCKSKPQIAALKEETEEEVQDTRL

Anoctamin1 (ANO1) = biological target: T2, Anoctamin1 (ANO1) (Homo sapiens, UniProt Q5XXA6); assay: YFP quenching assay in FRT-ANO1 cells; short-circuit current; whole-cell patch clamp in HEK293; type: cell-based
T2 construct: human ANO1 expressed in FRT cells (YFP assay, Ussing chamber) and HEK293 cells (patch clamp)
T2 sequence (Q5XXA6 1-986): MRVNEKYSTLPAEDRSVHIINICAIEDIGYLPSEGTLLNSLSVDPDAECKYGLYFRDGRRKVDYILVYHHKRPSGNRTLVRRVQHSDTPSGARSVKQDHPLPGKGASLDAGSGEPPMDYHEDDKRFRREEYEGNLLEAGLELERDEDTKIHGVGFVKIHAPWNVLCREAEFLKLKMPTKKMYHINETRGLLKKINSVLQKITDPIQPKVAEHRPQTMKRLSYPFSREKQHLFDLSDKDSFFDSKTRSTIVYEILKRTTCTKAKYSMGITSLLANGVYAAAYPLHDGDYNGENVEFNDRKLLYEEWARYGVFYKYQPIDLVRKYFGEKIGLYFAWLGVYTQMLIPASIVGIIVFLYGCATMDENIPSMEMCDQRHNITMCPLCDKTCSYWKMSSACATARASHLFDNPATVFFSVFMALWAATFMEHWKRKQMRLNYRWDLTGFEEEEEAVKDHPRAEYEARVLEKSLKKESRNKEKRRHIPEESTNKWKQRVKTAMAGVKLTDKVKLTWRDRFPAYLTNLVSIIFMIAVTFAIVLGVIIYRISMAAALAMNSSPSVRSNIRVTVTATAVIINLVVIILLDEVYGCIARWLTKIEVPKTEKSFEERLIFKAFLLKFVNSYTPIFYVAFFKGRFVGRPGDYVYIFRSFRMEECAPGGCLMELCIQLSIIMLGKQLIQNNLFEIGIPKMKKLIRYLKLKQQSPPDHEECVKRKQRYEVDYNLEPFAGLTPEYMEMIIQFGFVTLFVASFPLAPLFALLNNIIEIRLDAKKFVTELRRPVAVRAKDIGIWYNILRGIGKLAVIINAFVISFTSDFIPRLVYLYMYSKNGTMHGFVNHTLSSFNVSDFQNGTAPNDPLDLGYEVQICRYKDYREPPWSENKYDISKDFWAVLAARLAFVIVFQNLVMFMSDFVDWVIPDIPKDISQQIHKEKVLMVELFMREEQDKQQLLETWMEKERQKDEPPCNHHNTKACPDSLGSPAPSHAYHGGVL

Row | IC50 (Anoctamin1 (ANO1)) [µM] | Compound | YFP fluorescence and Ussing chamber short-circuit current in FRT-hCFTR cells, 10 [1]
1 | – | O=C(O)c1ccc(/C=C2\SC(=S)N(c3cccc(C(F)(F)F)c3)C2=O)cc1 [CFTRinh-172] | forskolin-induced CFTR activity was inhibited by CFTRinh172 (a known CFTR channel inhibitor)
2 | 6.58 | CC/C(=C(/CC)c1ccc(O)cc1)c1ccc(O)cc1 [DES, diethylstilbestrol] | –
